Strand notation (5' to 3'): a small letter for the sugar, then the base; units joined by * are phosphorothioate-linked, units joined directly phosphodiester-linked; [ ] holds rarer units or linkages, { } end groups; capitals alone tell only the bases. e = 2'-O-(2-methoxyethyl) (MOE); [5mC] = 5-methylcytosine; d = 2'-deoxy (DNA)
Experiments:
hB7-2 mRNA = assay: Ribonuclease protection assay of hB7-2 mRNA in transfected COS-7 cells; format: cell-based, human
Procedure, shortened: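 COS-7 cells transfected with hB7-2 were treated with antisense oligonucleotides at varied concentrations, mismatch controls included; RNA taken 18 h after treatment. 5 μg total RNA hybridised overnight at 42° C with 32P antisense probe (B7-2 positions 1044-1391) or beta-actin probe, RNase A/T1 digested, gel-resolved and quantified by phosphorimaging.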

human B7-1 = assay: Cell surface expression of B7-1 in pcB7-1-transfected COS-7 cells by flow cytometry; format: cell-based; conditions: for % B7-1 EXPRESSION: human B7 cell surface expression, Table 16; for % Surface Inhibition / % Surface Expression: COS-7 cells, B7-1 cell surface; for % Surface Expression: basal = 100%
Experimental: The ability of oligonucleotides to inhibit B7-1 expression was evaluated by measuring the cell surface expression of B7-1 in transfected COS-7 cells by flow cytometry.
A T-175 flask was seeded at 75% confluency with COS-7 cells (ATCC accession No. CRL 1651). The plasmid pcB7-1 was introduced into cells by standard calcium phosphate transfection. Following a 4 hour transfection, the cells were trypsinized and seeded in 12-well dishes at 80% confluency. The cells were allowed to adhere to the plastic for 1 hour and were then washed with phosphate-buffered saline (PBS). OptiMEM™ (GIBCO-BRL, Gaithersburg, Md.) medium was added along with 15 μg/mL of Lipofectin™ (GIBCO-BRL, Gaithersburg, Md.) and oligonucleotide at the indicated concentrations. After four additional hours, the cells were washed with phosphate buffered saline (PBS) and incubated with fresh oligonucleotide at the same concentration in DMEM (Dulbecco et al., Virol., 1959, 8, 396; Smith et al., Virol., 1960, 12, 185) with 10% fetal calf sera (FCS).
In order to monitor the effects of oligonucleotides on cell surface expression of B7-1, treated COS-7 cells were harvested by brief trypsinization 24-48 hours after oligonucleotide treatment. The cells were washed with PBS, then resuspended in 100 μL of staining buffer (PBS, 0.2% BSA, 0.1% azide) with 5 μL conjugated anti-B7-1-antibody (i.e., anti-hCD80-FITC, Ancell, Bayport, Minn.; FITC: fluorescein isothiocyanate). The cells were stained for 30 minutes at 4° C., washed with PBS, resuspended in 300 μL containing 0.5% paraformaldehyde. Cells were harvested and the fluorescence profiles were determined using a flow cytometer.
B7 antisense oligonucleotides were tested for their effect on cell surface expression of both B7-1 and B7-2. Cell surface expression was measured as described in Example 1. Experiments were done for both human B7 and mouse B7.
The oligonucleotides were screened as described in Example 2 except that the concentration of oligonucleotide was varied as shown in Table 18.

human B7-2 = assay: Cell surface expression of B7-2 in transfected COS-7 cells by flow cytometry; format: cell-based; conditions: for % Surface Inhibition / % Surface Expression: COS-7 cells, B7-2 cell surface; for % Surface Expression: basal = 100%; for % B7-2 EXPRESSION: human B7 cell surface expression, Table 16
Procedure, shortened: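 COS-7 cells transfected with B7-2 plasmid (calcium phosphate), then treated with antisense oligonucleotides with 15 μg/mL Lipofectin for 4 h, followed by oligonucleotide in DMEM/10% FCS. After 24-48 h, cells stained with FITC- or PE-conjugated anti-CD86 for 30 min at 4 °C and analysed by flow cytometry.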

Human B7-1 mRNA = Human B7-1 mRNA expression in COS-7 cells, screened as in Example 4; format: cell-based

22294 (eG*eG*eT*e[5mC]*e[5mC]*dA*dA*d[5mC]*dT*dG*dT*d[5mC]*d[5mC]*dG*dA*eA*eT*e[5mC]*eA*eA; antisense) [compound 22294]
% mRNA INHIBITION (hB7-2 mRNA; COS-7 cells, B7-2 mRNA, oligonucleotide dose 10 nM): 7%
% mRNA EXPRESSION (hB7-2 mRNA; COS-7 cells, B7-2 mRNA, oligonucleotide dose 10 nM, basal = 100%): 93%
% mRNA INHIBITION (hB7-2 mRNA; COS-7 cells, B7-2 mRNA, oligonucleotide dose 30 nM): 5%
% mRNA EXPRESSION (hB7-2 mRNA; COS-7 cells, B7-2 mRNA, oligonucleotide dose 30 nM, basal = 100%): 95%
% mRNA INHIBITION (hB7-2 mRNA; COS-7 cells, B7-2 mRNA, oligonucleotide dose 100 nM): 42%
% mRNA EXPRESSION (hB7-2 mRNA; COS-7 cells, B7-2 mRNA, oligonucleotide dose 100 nM, basal = 100%): 58%
% mRNA INHIBITION (hB7-2 mRNA; COS-7 cells, B7-2 mRNA, oligonucleotide dose 300 nM): 55%
% mRNA EXPRESSION (hB7-2 mRNA; COS-7 cells, B7-2 mRNA, oligonucleotide dose 300 nM, basal = 100%): 45%
% mRNA EXPRESSION (hB7-2 mRNA; human B7-2 mRNA, Table 12): 21%
% B7-1 EXPRESSION (human B7-1): 77%
% Surface Inhibition (human B7-2; dose 10 nM): 11%
% Surface Expression (human B7-2; dose 10 nM): 89%
% Surface Inhibition (human B7-2; dose 30 nM): 38%
% Surface Expression (human B7-2; dose 30 nM): 62%
% Surface Inhibition (human B7-2; dose 100 nM): 71%
% Surface Expression (human B7-2; dose 100 nM): 29%
% Surface Inhibition (human B7-2; dose 300 nM): 88%
% Surface Expression (human B7-2; dose 300 nM): 12%
% B7-2 EXPRESSION (human B7-2): 28%

22316 (eG*e[5mC]*eT*e[5mC]*eA*d[5mC]*dG*dT*dA*dG*dA*dA*dG*dA*d[5mC]*e[5mC]*e[5mC]*eT*e[5mC]*e[5mC]; antisense) [compound 22316]
% mRNA EXPRESSION (Human B7-1 mRNA; 10 nM, COS-7, Table 8): 99%
% mRNA INHIBITION (Human B7-1 mRNA; 10 nM, COS-7, Table 8): 1%
% mRNA EXPRESSION (Human B7-1 mRNA; 30 nM, COS-7, Table 8): 73%
% mRNA INHIBITION (Human B7-1 mRNA; 30 nM, COS-7, Table 8): 27%
% mRNA EXPRESSION (Human B7-1 mRNA; 100 nM, COS-7, Table 8): 58%
% mRNA INHIBITION (Human B7-1 mRNA; 100 nM, COS-7, Table 8): 42%
% mRNA EXPRESSION (Human B7-1 mRNA; 300 nM, COS-7, Table 8): 33%
% mRNA INHIBITION (Human B7-1 mRNA; 300 nM, COS-7, Table 8): 67%
% mRNA EXPRESSION (Human B7-1 mRNA; human B7-1 mRNA, Table 7): 42%
% Surface Inhibition (human B7-1; dose 10 nM): 26%
% Surface Expression (human B7-1; dose 10 nM): 74%
% Surface Inhibition (human B7-1; dose 30 nM): 26%
% Surface Expression (human B7-1; dose 30 nM): 74%
% Surface Inhibition (human B7-1; dose 100 nM): 53%
% Surface Expression (human B7-1; dose 100 nM): 47%
% Surface Inhibition (human B7-1; dose 300 nM): 66%
% Surface Expression (human B7-1; dose 300 nM): 34%
% B7-1 EXPRESSION (human B7-1): 31%
% B7-2 EXPRESSION (human B7-2): 100%

22317 (eT*e[5mC]*e[5mC]*e[5mC]*eA*dG*dG*dT*dG*d[5mC]*dA*dA*dA*dA*d[5mC]*eA*eG*eG*e[5mC]*eA; antisense) [compound 22317]
% mRNA EXPRESSION (Human B7-1 mRNA; human B7-1 mRNA, Table 7): 43%
% B7-1 EXPRESSION (human B7-1): 28%
% B7-2 EXPRESSION (human B7-2): 91%

22320 (eT*eT*eG*eA*eG*dG*dT*dA*dT*dG*dG*dA*d[5mC]*dA*d[5mC]*eT*eT*eG*eG*eA; antisense) [compound 22320]
% mRNA EXPRESSION (Human B7-1 mRNA; human B7-1 mRNA, Table 7): 45%
% B7-1 EXPRESSION (human B7-1): 37%
% B7-2 EXPRESSION (human B7-2): 86%

22324 (eG*eG*e[5mC]*e[5mC]*eA*dT*dA*dT*dA*dT*dT*d[5mC]*dA*dT*dG*eT*e[5mC]*e[5mC]*e[5mC]*e[5mC]; antisense) [compound 22324]
% mRNA EXPRESSION (Human B7-1 mRNA; human B7-1 mRNA, Table 7): 46%
% B7-1 EXPRESSION (human B7-1): 37%
% B7-2 EXPRESSION (human B7-2): 91%

22325 (eG*e[5mC]*e[5mC]*eA*eG*dG*dA*dT*d[5mC]*dA*d[5mC]*dA*dA*dT*dG*eG*eA*eG*eA*eG) [compound 22325]
% mRNA EXPRESSION (Human B7-1 mRNA; human B7-1 mRNA, Table 7): 46%
% B7-1 EXPRESSION (human B7-1): 32%
% B7-2 EXPRESSION (human B7-2): 89%

22334 (antisense eA*eA*eG*e[5mC]*eA*dG*dT*dA*dG*dG*dT*d[5mC]*dA*dG*dG*e[5mC]*eA*eG*e[5mC]*eA) [compound 22334]
% mRNA EXPRESSION (Human B7-1 mRNA; human B7-1 mRNA, Table 7): 43%
% B7-1 EXPRESSION (human B7-1): 28%
% B7-2 EXPRESSION (human B7-2): 92%

22335 (antisense e[5mC]*e[5mC]*eT*eT*eG*d[5mC]*dT*dT*d[5mC]*dT*dG*d[5mC]*dG*dG*dA*e[5mC]*eA*e[5mC]*eT*eG) [compound 22335]
% mRNA EXPRESSION (Human B7-1 mRNA; 10 nM, COS-7, Table 8): 81%
% mRNA INHIBITION (Human B7-1 mRNA; 10 nM, COS-7, Table 8): 19%
% mRNA EXPRESSION (Human B7-1 mRNA; 30 nM, COS-7, Table 8): 63%
% mRNA INHIBITION (Human B7-1 mRNA; 30 nM, COS-7, Table 8): 37%
% mRNA EXPRESSION (Human B7-1 mRNA; 100 nM, COS-7, Table 8): 43%
% mRNA INHIBITION (Human B7-1 mRNA; 100 nM, COS-7, Table 8): 57%
% mRNA EXPRESSION (Human B7-1 mRNA; 300 nM, COS-7, Table 8): 35%
% mRNA INHIBITION (Human B7-1 mRNA; 300 nM, COS-7, Table 8): 65%
% mRNA EXPRESSION (Human B7-1 mRNA; human B7-1 mRNA, Table 7): 43%
% Surface Inhibition (human B7-1; dose 10 nM): 19%
% Surface Expression (human B7-1; dose 10 nM): 81%
% Surface Inhibition (human B7-1; dose 30 nM): 31%
% Surface Expression (human B7-1; dose 30 nM): 69%
% Surface Inhibition (human B7-1; dose 100 nM): 53%
% Surface Expression (human B7-1; dose 100 nM): 47%
% Surface Inhibition (human B7-1; dose 300 nM): 62%
% Surface Expression (human B7-1; dose 300 nM): 38%
% B7-1 EXPRESSION (human B7-1): 23%
% B7-2 EXPRESSION (human B7-2): 95%

22337 (antisense eT*eG*eA*e[5mC]*eG*dG*dA*dG*dG*d[5mC]*dT*dA*d[5mC]*d[5mC]*dT*eT*e[5mC]*eA*eG*eA) [compound 22337]
% mRNA EXPRESSION (Human B7-1 mRNA; human B7-1 mRNA, Table 7): 42%
% B7-1 EXPRESSION (human B7-1): 48%
% B7-2 EXPRESSION (human B7-2): 101%

22338 (antisense eG*e[5mC]*e[5mC]*eT*e[5mC]*dA*dT*dG*dA*dT*d[5mC]*d[5mC]*d[5mC]*d[5mC]*dA*e[5mC]*eG*eA*eT*e[5mC]) [compound 22338]
% mRNA EXPRESSION (Human B7-1 mRNA; 10 nM, COS-7, Table 8): 68%
% mRNA INHIBITION (Human B7-1 mRNA; 10 nM, COS-7, Table 8): 32%
% mRNA EXPRESSION (Human B7-1 mRNA; 30 nM, COS-7, Table 8): 60%
% mRNA INHIBITION (Human B7-1 mRNA; 30 nM, COS-7, Table 8): 40%
% mRNA EXPRESSION (Human B7-1 mRNA; 100 nM, COS-7, Table 8): 53%
% mRNA INHIBITION (Human B7-1 mRNA; 100 nM, COS-7, Table 8): 47%
% mRNA EXPRESSION (Human B7-1 mRNA; 300 nM, COS-7, Table 8): 41%
% mRNA INHIBITION (Human B7-1 mRNA; 300 nM, COS-7, Table 8): 59%
% mRNA EXPRESSION (Human B7-1 mRNA; human B7-1 mRNA, Table 7): 40%
% Surface Inhibition (human B7-1; dose 10 nM): 22%
% Surface Expression (human B7-1; dose 10 nM): 78%
% Surface Inhibition (human B7-1; dose 30 nM): 35%
% Surface Expression (human B7-1; dose 30 nM): 65%
% Surface Inhibition (human B7-1; dose 100 nM): 50%
% Surface Expression (human B7-1; dose 100 nM): 50%
% Surface Inhibition (human B7-1; dose 300 nM): 60%
% Surface Expression (human B7-1; dose 300 nM): 40%
% B7-1 EXPRESSION (human B7-1): 22%
% B7-2 EXPRESSION (human B7-2): 96%
